Measured values published in patent US10827753B2, “Compositions and methods for controlling nematodes” (Monsanto Technology LLC, priority 2007, dated 2020).
Where two headings read alike, the source gives them in different places.

How the values were obtained:
[1] = test system: sting (Belonolaimus longicaudatus) nematodes; test: Sting nematode bench top soil assay; assay type: in vivo
mice = conditions: cited from earlier work
[2] = test system: CD-1/Swiss derived albino mice; assay type: in vivo; conditions: for mortality, signs of gross toxicity and behavioral changes: three female mice, observed up to 14 days
[3] = test system: caspase-3 in rat hepatoma derived H4IIE cells; test: Caspase-3 activity (DEVD-AMC) after compound exposure in H4IIE cells; assay type: cell-based; conditions: concentrations up to 300 μM
Method: Caspase 3 cleaves the tetrapeptide between D and AMC, thus releasing the fluorogenic […] AMC. Following the test article exposure to cells in 96-well plates, medium was aspirated from plates and PBS added to each well. Plates were stored at −80° C. to lyse cells and store samples until further analysis. On the day of analysis, plates were removed from freezer and thawed. Caspase buffer with fluorescent substrate was added to each well and incubated at room temperature for one hour. AMC release was measured in a spectrofluorometer at an excitation wavelength of 360 nm and an emission wavelength of 460 nm. Values are expressed as relative fluorescent units (RFU).

[4] = test system: Meloidogyne incognita (RKN); test: Seed treatment test of root knot nematode on cucumber plants; assay type: in vivo; conditions: 20 mg ai/gram seed, cucumber seeds
Method: For a given concentration the chemical is dissolved in 500 ul of acetone and one gram of cucumber seed (RKN test) or soybean seed (SCN test) is added (e.g., 20 mg active ingredient in 500 ul acetone plus 1 gram of seed). The seed solutions are agitated until all seeds were thoroughly covered with the chemical solution. The acetone is then allowed to evaporate by air drying the seeds. The seeds are planted in 2-inch pots containing sandy soil and then the pots are inoculated with 1000 Meloidogyne incognita (RKN) or 1000 Heterodera glycines (SCN) eggs per pot three days after planting. Plants are rated for galling 14 days after egg inoculation for RKN or 28 days after egg inoculation for SCN.

[5] = test system: Caenorhabditis elegans ced-3(n717) and ced-4(N1162) mutants; test: Susceptibility of apoptosis-defective C. elegans mutants on NGM agar plates; assay type: in vivo; conditions: 10 μg/ml on NGM agar plates
Meloidogyne incognita = test: Summer field evaluation of pre-plant incorporated compounds on squash; assay type: in vivo
How it was run: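 PPI simulation: compound in acetone/Triton X-100 and water mixed into 80% sand/20% silt loam with chopped galled tomato roots, filling top 15 cm of 6 replicate field plots. M. incognita eggs/larvae (100 k per plot) injected 5 cm deep; three-week-old squash cv. Liberator III planted 4 days after treatment.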

CCOP(=O)(NC(C)C)Oc1ccc(SC)c(C)c1 (stereo not shown) [Fenamiphos, fenamiphos, reference compound]
Number of nematodes recovered from treated soil after 3 days incubation with the compound ([1]; Other: 11.1 kg fenamiphos as positive control): 20
oral LD50 in mice (mice): 22.7 mg/kg

c1ccc(-c2noc(-c3cccs3)n2)cc1 [compound 1822]
mortality, signs of gross toxicity and behavioral changes ([2]; 50 mg/kg oral): all animals survived, gained body weight, and appeared active and healthy
mortality, signs of gross toxicity and behavioral changes ([2]; 500 mg/kg oral): all animals died within three days
induction of caspase-3 (apoptosis marker) [3]: no induction of caspase-3
percent control (galling reduction) relative to the control blank treatment [4]: 76%

Brc1ccc(-c2cnc(-c3cccs3)o2)cc1 [compound 4776]
mortality, signs of gross toxicity and behavioral changes ([2]; 500 mg/kg oral): two animals died within three days
oral toxicity ([2]; mice, oral, estimate based on the 50 and 500 mg/kg studies): lower than 500 mg/kg
Number of nematodes recovered from treated soil after 3 days incubation with the compound ([1]; 2 kg/ha): 16
Number of nematodes recovered from treated soil after 3 days incubation with the compound ([1]; 4 kg/ha): 19
Number of nematodes recovered from treated soil after 3 days incubation with the compound ([1]; 10 kg/ha): 20
percent control (galling reduction) relative to the control blank treatment [4]: 58%

Cc1cc(Cl)ccc1-c1noc(-c2ccco2)n1 [compound 5823]
difference in susceptibility between wild-type (N2 Bristol) and ced-3 and ced-4 mutants, including time to mortality [5]: No observable phenotypic difference in susceptibility
induction of caspase-3 (apoptosis marker) [3]: no induction of caspase-3
0-3 vigor 16 DAP (Meloidogyne incognita; 4 kg (kg/ha) PPI, squash): 3.0
0-3 vigor 21 DAP (Meloidogyne incognita; 4 kg (kg/ha) PPI, squash): 3.0
feeder root (3 = ave) 31 DAP (Meloidogyne incognita; 4 kg (kg/ha) PPI, squash): 2.7
gall % 31 DAP (Meloidogyne incognita; 4 kg (kg/ha) PPI, squash): 3%
root wgt (g) 31 DAP (Meloidogyne incognita; 4 kg (kg/ha) PPI, squash): 22.6 g
top wgt (lbs) 31 DAP (Meloidogyne incognita; 4 kg (kg/ha) PPI, squash): 1.45 lbs
total fruit (lbs) (Meloidogyne incognita; 4 kg (kg/ha) PPI, squash): 1.44 lbs
control of M. incognita (in words) (Meloidogyne incognita; PPI application at 4 kg/ha): excellent control
